According to patent publication US8178534B2, “cMET inhibitors” (Takeda Pharmaceutical Company Limited, priority 2008, dated 2012):

Assays:
[1] = molecular target: T1, cMET enzyme (amino acids 1023-1360) (Homo sapiens, UniProt P08581); experiment: Determination of inhibition of cMET (capillary electrophoresis, phosphorylated peptide product); format: biochemical; settings: 1.2 nM cMET, 50 μM ATP, 2 μM FL-2 peptide, 2 hours room temperature
T1 construct: The cMET enzyme (amino acids 1023-1360) nominally at 24 μM was held at −80° C. until use; His tag (N, cleaved yes); made in house; host or cells: Sf9 cells

MKN45 = experiment: Inhibition of cell viability (MTS), MKN45; format: cell-based; settings: Homo sapiens, MKN-45, 96 h, MKN45 cells, 96 hours incubation
Summary of the method: (§1)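 Cells seeded at 2,000-7,500/well, attached ~24 h, then treated in duplicate with 1:2.5 serial dilutions at 0.5% final DMSO. Viability by MTS; EC50 from non-linear fit after background correction and normalisation to DMSO. MKN45 and EBC1 are cMET-dependent; A549 serves as negative control.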

EBC1 = experiment: Inhibition of cell viability (MTS), EBC1; format: cell-based; settings: Homo sapiens, EBC-1, 96 h, EBC1 cells, 96 hours incubation
Summary of the method: as §1

A549 = experiment: Inhibition of cell viability (MTS), A549 (negative control line); format: cell-based; settings: Homo sapiens, A549, 96 h, A549 cells (negative control), 96 hours incubation
Summary of the method: as §1

T1 sequence (P08581 1023-1360): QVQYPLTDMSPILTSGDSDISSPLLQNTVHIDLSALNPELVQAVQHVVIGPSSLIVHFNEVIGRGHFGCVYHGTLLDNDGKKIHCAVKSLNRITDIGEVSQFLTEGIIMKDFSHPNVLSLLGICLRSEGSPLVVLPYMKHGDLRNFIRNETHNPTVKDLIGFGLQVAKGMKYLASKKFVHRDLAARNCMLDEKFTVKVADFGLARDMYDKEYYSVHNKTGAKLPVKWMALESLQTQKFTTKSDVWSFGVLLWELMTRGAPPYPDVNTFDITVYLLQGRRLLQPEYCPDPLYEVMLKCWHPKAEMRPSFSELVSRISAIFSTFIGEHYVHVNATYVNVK

Row | Structure (SMILES) | IC50 [1] [nM] | EC50 (MKN45) [nM] | EC50 (EBC1) [nM] | EC50 (A549) [nM]
1 | CC(c1ccc2nc(NC(=O)C3CC3)cn2n1)c1nnc2ccc(-c3ccc(S(C)(=O)=O)cc3)cn12 (centres unmarked) [Compound 60, N-(6-(1-(6-(4-(methylsulfonyl)phenyl)-[1,2,4]triazolo[4,3-a]pyridin-3-yl)ethyl)imidazo[1,2-b]pyridazin-2-yl)cyclopropanecarboxamide] | < 30 | 60 to 100 | 60 to 100 | > 50000
2 | COc1cccc(-c2ccc3nnc(C(C)c4ccc5nc(NC(=O)C6CC6)cn5n4)n3c2)c1 (centres unmarked) [Compound 61, N-(6-(1-(6-(3-methoxyphenyl)-[1,2,4]triazolo[4,3-a]pyridin-3-yl)ethyl)imidazo[1,2-b]pyridazin-2-yl)cyclopropanecarboxamide] | < 30 | < 30 | < 30 | > 50000
3 | Cc1csc(-c2ccc3nnc(C(C)c4ccc5nc(NC(=O)C6CC6)cn5n4)n3c2)c1 (centres unmarked) [Compound 62, N-(6-(1-(6-(4-methylthiophen-2-yl)-[1,2,4]triazolo[4,3-a]pyridin-3-yl)ethyl)imidazo[1,2-b]pyridazin-2-yl)cyclopropanecarboxamide] | < 30 | < 30 | < 30 | 5000 to 8000
4 | CC(c1ccc2nc(NC(=O)C3CC3)cn2n1)c1nnc2ccc(-c3ccc(C#N)cc3)cn12 (centres unmarked) [Compound 63, N-(6-(1-(6-(4-cyanophenyl)-[1,2,4]triazolo[4,3-a]pyridin-3-yl)ethyl)imidazo[1,2-b]pyridazin-2-yl)cyclopropanecarboxamide] | < 30 | < 30 | < 30 | > 50000
5 | CC(c1ccc2nc(NC(=O)C3CC3)cn2n1)c1nnc2ccc(-c3cn[nH]c3)cn12 (centres unmarked) [Compound 64, N-(6-(1-(6-(1H-pyrazol-4-yl)-[1,2,4]triazolo[4,3-a]pyridin-3-yl)ethyl)imidazo[1,2-b]pyridazin-2-yl)cyclopropanecarboxamide] | < 30 | 100 to 249 | 100 to 249 | > 50000
6 | CC(c1ccc2nc(NC(=O)C3CC3)cn2n1)c1nnc2ccc(-c3cccc(F)c3)cn12 (centres unmarked) [Compound 65, N-(6-(1-(6-(3-fluorophenyl)-[1,2,4]triazolo[4,3-a]pyridin-3-yl)ethyl)imidazo[1,2-b]pyridazin-2-yl)cyclopropanecarboxamide] | < 30 | < 30 | < 30 | > 50000
7 | CC(c1ccc2nc(NC(=O)C3CC3)cn2n1)c1nnc2ccc(-c3cccc(C(N)=O)c3)cn12 (centres unmarked) [Compound 66, 3-(3-(1-(2-(cyclopropanecarboxamido)imidazo[1,2-b]pyridazin-6-yl)ethyl)-[1,2,4]triazolo[4,3-a]pyridin-6-yl)benzamide] | < 30 | 100 to 249 | 100 to 249 | > 50000
8 | CC(c1ccc2nc(NC(=O)C3CC3)cn2n1)c1nnc2ccc(-c3ccc(C(N)=O)cc3)cn12 (centres unmarked) [Compound 67, 4-(3-(1-(2-(cyclopropanecarboxamido)imidazo[1,2-b]pyridazin-6-yl)ethyl)-[1,2,4]triazolo[4,3-a]pyridin-6-yl)benzamide] | < 30 | 100 to 249 | 60 to 100 | > 50000
9 | CNC(=O)c1ccc(-c2ccc3nnc(C(C)c4ccc5nc(NC(=O)C6CC6)cn5n4)n3c2)cc1 (centres unmarked) [Compound 68, 4-(3-(1-(2-(cyclopropanecarboxamido)imidazo[1,2-b]pyridazin-6-yl)ethyl)-[1,2,4]triazolo[4,3-a]pyridin-6-yl)-N-methylbenzamide] | < 30 | 30 to 59 | 30 to 59 | > 50000
10 | CCOc1ccc(-c2ccc3nnc(C(C)c4ccc5nc(NC(=O)C6CC6)cn5n4)n3c2)cc1 (centres unmarked) [Compound 69, N-(6-(1-(6-(4-ethoxyphenyl)-[1,2,4]triazolo[4,3-a]pyridin-3-yl)ethyl)imidazo[1,2-b]pyridazin-2-yl)cyclopropanecarboxamide] | < 30 | < 30 | < 30 | > 50000
11 | COc1ccc(-c2ccc3nnc(C(C)c4ccc5nc(NC(=O)C6CC6)cn5n4)n3c2)cc1C (centres unmarked) [Compound 70, N-(6-(1-(6-(4-methoxy-3-methylphenyl)-[1,2,4]triazolo[4,3-a]pyridin-3-yl)ethyl)imidazo[1,2-b]pyridazin-2-yl)cyclopropanecarboxamide] | < 30 | < 30 | < 30 | > 50000
12 | CC(c1ccc2nc(NC(=O)C3CC3)cn2n1)c1nnc2ccc(-c3ccc(F)c(C#N)c3)cn12 (centres unmarked) [Compound 71, N-(6-(1-(6-(3-cyano-4-fluorophenyl)-[1,2,4]triazolo[4,3-a]pyridin-3-yl)ethyl)imidazo[1,2-b]pyridazin-2-yl)cyclopropanecarboxamide] | < 30 | < 30 | < 30 | > 50000
13 | CC(c1ccc2nc(NC(=O)C3CC3)cn2n1)c1nnc2ccc(-c3ccc(C#N)c(F)c3)cn12 (centres unmarked) [Compound 72, N-(6-(1-(6-(4-cyano-3-fluorophenyl)-[1,2,4]triazolo[4,3-a]pyridin-3-yl)ethyl)imidazo[1,2-b]pyridazin-2-yl)cyclopropanecarboxamide] | < 30 | < 30 | < 30 | > 50000
14 | CC(c1ccc2nc(NC(=O)C3CC3)cn2n1)c1nnc2ccc(-c3cccc(N(C)C)c3)cn12 (centres unmarked) [Compound 73, N-(6-(1-(6-(3-(dimethylamino)phenyl)-[1,2,4]triazolo[4,3-a]pyridin-3-yl)ethyl)imidazo[1,2-b]pyridazin-2-yl)cyclopropanecarboxamide] | < 30 | < 30 | < 30 | 8000 to 25000
15 | O=C(Nc1cn2nc(C(F)(F)c3nnc4ccc(-c5ccc(F)cc5)cn34)ccc2n1)C1CC1 [Compound 74, N-(6-(difluoro(6-(4-fluorophenyl)-[1,2,4]triazolo[4,3-a]pyridin-3-yl)methyl)imidazo[1,2-b]pyridazin-2-yl)cyclopropanecarboxamide] | < 30 | < 30 | < 30 | 8000 to 25000
16 | COc1ccc(-c2ccc3nnc(C(F)(F)c4ccc5nc(NC(=O)C6CC6)cn5n4)n3c2)cc1 [Compound 75, N-(6-(difluoro(6-(4-methoxyphenyl)-[1,2,4]triazolo[4,3-a]pyridin-3-yl)methyl)imidazo[1,2-b]pyridazin-2-yl)cyclopropanecarboxamide] | < 30 | < 30 | < 30 | 8000 to 25000
17 | COc1cccc(-c2ccc3nnc(C(F)(F)c4ccc5nc(NC(=O)C6CC6)cn5n4)n3c2)c1 [Compound 76, N-(6-(difluoro(6-(3-methoxyphenyl)-[1,2,4]triazolo[4,3-a]pyridin-3-yl)methyl)imidazo[1,2-b]pyridazin-2-yl)cyclopropanecarboxamide] | < 30 | < 30 | < 30 | > 50000
18 | O=C(Nc1cn2nc(C(F)(F)c3nnc4ccc(-c5cccc(F)c5)cn34)ccc2n1)C1CC1 [Compound 77, N-(6-(difluoro(6-(3-fluorophenyl)-[1,2,4]triazolo[4,3-a]pyridin-3-yl)methyl)imidazo[1,2-b]pyridazin-2-yl)cyclopropanecarboxamide] | < 30 | < 30 | < 30 | > 50000
19 | O=C(Nc1cn2nc(C(F)(F)c3nnc4ccc(-c5cccnc5)cn34)ccc2n1)C1CC1 [Compound 78, N-(6-(difluoro(6-(pyridin-3-yl)-[1,2,4]triazolo[4,3-a]pyridin-3-yl)methyl)imidazo[1,2-b]pyridazin-2-yl)cyclopropanecarboxamide] | 30 to 59 | < 30 | < 30 | > 50000
20 | O=C(Nc1cn2nc(C(F)(F)c3nnc4ccc(-c5ccncc5)cn34)ccc2n1)C1CC1 [Compound 79, N-(6-(difluoro(6-(pyridin-4-yl)-[1,2,4]triazolo[4,3-a]pyridin-3-yl)methyl)imidazo[1,2-b]pyridazin-2-yl)cyclopropanecarboxamide] | 60 to 100 | < 30 | < 30 | > 50000
21 | CC(C)c1ccc(-c2ccc3nnc(C(F)(F)c4ccc5nc(NC(=O)C6CC6)cn5n4)n3c2)cc1 [Compound 80, N-(6-(difluoro(6-(4-isopropylphenyl)-[1,2,4]triazolo[4,3-a]pyridin-3-yl)methyl)imidazo[1,2-b]pyridazin-2-yl)cyclopropanecarboxamide] | 30 to 59 | < 30 | 30 to 59 | > 50000
22 | O=C(Nc1cn2nc(C(F)(F)c3nnc4ccc(-c5cc(F)cc(F)c5)cn34)ccc2n1)C1CC1 [Compound 81, N-(6-((6-(3,5-difluorophenyl)-[1,2,4]triazolo[4,3-a]pyridin-3-yl)difluoromethyl)imidazo[1,2-b]pyridazin-2-yl)cyclopropanecarboxamide] | < 30 | < 30 | < 30 | > 50000
23 | N#Cc1cccc(-c2ccc3nnc(C(F)(F)c4ccc5nc(NC(=O)C6CC6)cn5n4)n3c2)c1 [Compound 82, N-(6-((6-(3-cyanophenyl)-[1,2,4]triazolo[4,3-a]pyridin-3-yl)difluoromethyl)imidazo[1,2-b]pyridazin-2-yl)cyclopropanecarboxamide] | < 30 | < 30 | < 30 | > 50000
